Measurements from patent US20240209325A1, “CANCER PROPHYLAXIS AND THERAPY USING TARGETED VIRAL NANOPARTICLES” (priority 2021, published 2024).
Entries after “also recorded” stand apart in the source; their conditions may differ.

What was measured:
[1] = Biodistribution of Cy5-labeled CPMV and CCMV particles after i.v. injection (ex vivo IVIS); settings: for accumulation/clearance in liver (share of fluorescence signal): Cy5-labeled particles, 200 μg i.v., organs harvested after 24 h; for lung homing (in words): healthy and B16F10 tumor-bearing mice, i.v., 24 h
Experimental: Healthy and B16F10 metastatic tumor-bearing C57BL/6 female mice were used for biodistribution studies of the Cy5-labeled CPMV and CCMV from Section 2. B16F10 cells (200,000 cells/mouse) were administered i.v. and the tumors were matured for one week. […] After 24 hours, the lungs were harvested and then imaged and quantified for fluorescence using the IVIS (Xenogen).
Both healthy and B16F10 tumor-bearing mice were injected with native and H6/G3-conjugated CPMV and CCMV; to enable tracking the nanoparticles were labeled with Cy5. Lungs and other organs were harvested 24 h following intravenous (i.v.) nanoparticle injection and imaged ex vivo to observe localization of the nanoparticles in the lungs, spleen, kidney, and liver (FIG. 3A).

B16F10 melanoma cells = assay: B16F10 i.v. challenge to CPMV and CCMV pre-treated mice (prophylaxis); assay type: in vivo, C57BL/6J mice
Text: After 7 days, the mice were challenged by i.v. administration of 200,000 B16F10 melanoma cells per mouse. Lungs were harvested at day 21 (day 14 after tumor inoculation) and fixed in a 10% (v/v) neutral-buffered formalin solution overnight. Following fixation, the lungs were stored in 70% (v/v) ethanol (EtOH), and the number of tumor nodules per lung was manually counted.
After tumor nodule counting, the fixed lung samples were submitted to the La Jolla Institute for Immunology for hematoxylin and eosin (H&E) staining and imaging. Paraffin-embedded blocks were sectioned at 4 μm on a Leica RM2125 RTS microtome. The sections were then floated on a 42° C. tissue flotation bath and mounted onto Fisher Superfrost Plus microscope slides and subjected to H&E staining. Scanning was accomplished using a ZEISS AxioScan Z1 using a 20× objective. The ratio of tumor cells to total cells was measured from the histology slides using QuPath software^68.
To investigate the suitability of S100A9-targeted VNPs to serve as a prophylactic immunotherapy preventing manifestation of lung metastasis, we used a lung metastasis mouse model using C57BL/6J mice i.v. challenged with B16F10 melanoma cells. C57BL/6J mice were pre-exposed to the CPMV (therapeutic) and CCMV (control) nanoparticles with and without the H6/G3 targeting ligands, one week before being challenged i.v. with B16F10 melanoma cells (FIG. 4A). Lungs were harvested 2 weeks post tumor challenge, and tumor nodules were manually counted. […] This experiment was repeated one more time with only the CPMV particles as well as the H6 peptide only control (FIG. 4D).

[2] = tested on: innate immune cells in the lungs (DCs, neutrophils, macrophages); assay: Flow cytometry of innate immune cell profile in lungs; assay type: in vivo, C57BL/6 mice; settings: 200 μg i.v., lungs after 24 h; FACS (FIG. 6C)
Experimental: Lungs were harvested after 24 hours. Harvested organs were each placed in separate gentle MACS C tubes (Miltenyi Biotec) and dissociated with enzymatic solutions (lung dissociation kits, Miltenyi Biotec). The C tube lid was tightly screwed, inverted, and inserted in a gentleMACS dissociator (Militenyi Biotec). Organs were minced and digested on appropriate gentleMACS programs. After digestion, cells were passed through 40 μm pore size strainers and centrifuged at 500 g for 5 min. The cell pellet was resuspended in 5 mL of 1× RBC lysis solution (eBioscience) and incubated at RT for 2 min, followed by the addition of RPMI-1640 medium to stop lysis. Cells were centrifuged again at 500 g for 5 min and resuspended in PBS with 1% BSA and 2 mM EDTA (FACS solution). Total cell count and viability were found using trypan blue solution (Sigma-Aldrich) and a Countess™ automated cell counter (Invitrogen). Cell concentrations were adjusted to 1.0×10^7 cells/mL.
To reduce background staining of antibodies, 0.25 μg of purified rat anti-mouse CD16/32 (Biolegend) was added to 100 μL cell suspensions before adding to the conjugated antibodies. Cells were incubated at RT for ten minutes prior to immunofluorescence staining. All antibodies for immunofluorescence staining were purchased from Biolegend and diluted in FACS solution according to the manufacturer's recommendation. […]

S100A9 [3] = molecular target: T1, S100A9 (Mus musculus, UniProt P31725); assay: Confocal imaging of co-localization with S100A9 in tumor-bearing lung sections; assay type: in vivo, B16F10-inoculated mice
T1 construct: confocal imaging of tumor-bearing lungs sections was performed; from tissue; host or cells: lungs of B16F10-inoculated C57BL/6 mice
T1 sequence (P31725 1-113): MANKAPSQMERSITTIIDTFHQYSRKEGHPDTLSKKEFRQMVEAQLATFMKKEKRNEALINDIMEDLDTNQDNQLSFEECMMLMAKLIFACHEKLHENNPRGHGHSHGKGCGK

[4] = tested on: RAW-Blue cells: Toll-like receptor (TLR) and NOD stimulation; assay: RAW-Blue immunogenicity assay (SEAP, QUANTI-Blue); assay type: cell-based; settings: for immunogenicity, activation of NF-κB and AP-1, CPMV compared to CCMV (in words): FIG. 6B, 0.5 μg, 18 hours per method
Experimental: The immunogenicity of CPMV and CCMV was compared through a RAW-Blue™ assay (Invivogen). Briefly, 100,000 RAW-Blue™ cells/well were incubated with 0.5 μg of CPMV and CCMV, 50 EU mL-1 E. coli endotoxin standard control (ThermoScientific), or culture media for 18 hours. Toll-like receptor (TLR) and nucleotide-binding oligomerization domain (NOD) stimulation was assessed by measuring the levels of secreted embryonic alkaline phosphatase (SEAP) using a QUANTI-Blue™ (Invivogen) assay. Absorbance was measured at 655 nm using a Tecan microplate reader.
The immunogenicity between CPMV and its peptide-conjugated counterparts was also assessed using a RAW-Blue™ assay. […] A QUANTI-Blue™ assay was run like before, and absorbance was measured at 655 nm.

4T1-Luc cells [5] = assay: 4T1-Luc i.v. challenge to CPMV pre-treated mice (prophylaxis); assay type: in vivo, Balb/c mice
Experimental: After 5 days, the mice were challenged by i.v. injection of 200,000 4T1-Luc cells. The mice were imaged with the IVIS using luminescent imaging every 3 days by injecting intraperitoneally (i.p.) 150 mg/kg of body weight D-luciferin. ROI measurements were taken through the Living Image 3.0 software. The weight of the mice was also tracked every 3 days. After 25 days (20 days after tumor inoculation), the lungs were collected and fixed in Bouin's solution for 3 days. Each tumor nodule on the lungs was counted manually and averaged between the mice in each group.
To determine whether the prophylactic effect of S100A9-targeted CPMV could be replicated in other tumor models, we first exposed Balb/C mice to CPMV and S100A9-targeted CPMV by i.v. injection, and then challenged mice with luciferase-labeled 4T1 (4T1-Luc) cells. This experimental lung metastatic model mimics metastatic triple negative breast cancer (TNBC). Tumor cell challenge was carried out 5 days post CPMV exposure (FIG. 4G). […] By day 21, all the mice in the PBS treatment group had to be sacrificed due to significant weight loss (FIG. 12B). […] The lungs were harvested after 25 days and fixed in Bouin's solution before manual counting of tumor nodules (FIG. 4H, FIG. 4I). […] There was no significant difference between the CPMV and the CPMV-G3.

4T1-Luc cells [6] = assay: Treatment of 4T1-Luc lung metastasis (immunotherapy); assay type: in vivo, Balb/c mice; settings: 200 μg i.v. 3 days post tumor inoculation
Experimental: 4T1-luc cells (100,000/mouse) were injected i.v. into female Balb/c mice (n=15). […] Tumor growth was monitored by total bioluminescence imaging based on the i.p. injection of 150 mg/kg of body weight D-luciferin. Total bioluminescence was determined using the Living Image 3.0 software, and ROI were quantified as average counts.
A representative IVIS image on day 9 is shown in FIG. 5E while further imaging can be found in FIG. 13. […] The unabated tumor growth led to the mice in the PBS and CPMV groups all dying within 15 days or reaching their clinical endpoints before being sacrificed (FIG. 13B).

S100A9 [7] = molecular target: T2, S100A9 (Homo sapiens, UniProt P06702); settings: peptides that target or recognize and bind S100A9; screening described in Park et al. 2021; cited from earlier work
T2 sequence (P06702 1-114): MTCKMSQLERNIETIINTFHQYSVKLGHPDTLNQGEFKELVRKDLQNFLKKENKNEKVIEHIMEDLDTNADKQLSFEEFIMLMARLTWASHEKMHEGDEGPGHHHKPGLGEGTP

[8] = molecular target: T3, CPMV-Cy5-PEG (cowpea mosaic virus nanoparticle without targeting peptide) (Cowpea mosaic virus, UniProt P03599 460-833; P03599 834-1022); assay: confocal imaging of tumor-bearing mouse lung sections after i.v. injection of the particles, S100A9 stained with antibody
T3 sequence 1: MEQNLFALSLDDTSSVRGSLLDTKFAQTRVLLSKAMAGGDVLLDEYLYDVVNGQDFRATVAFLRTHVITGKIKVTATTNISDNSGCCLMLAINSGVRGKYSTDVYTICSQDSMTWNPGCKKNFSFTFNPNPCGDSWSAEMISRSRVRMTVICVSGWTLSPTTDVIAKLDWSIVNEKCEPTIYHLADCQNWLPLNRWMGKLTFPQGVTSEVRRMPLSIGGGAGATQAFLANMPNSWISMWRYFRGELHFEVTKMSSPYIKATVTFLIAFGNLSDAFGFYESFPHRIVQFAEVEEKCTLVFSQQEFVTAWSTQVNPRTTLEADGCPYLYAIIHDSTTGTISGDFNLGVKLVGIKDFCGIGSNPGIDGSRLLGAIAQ
T3 sequence 2: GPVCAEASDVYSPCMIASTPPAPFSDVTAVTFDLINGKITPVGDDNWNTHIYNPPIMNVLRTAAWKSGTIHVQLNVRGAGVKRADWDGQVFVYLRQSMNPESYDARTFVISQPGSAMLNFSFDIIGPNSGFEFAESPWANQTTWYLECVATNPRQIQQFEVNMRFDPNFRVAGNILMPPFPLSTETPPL

Question: What does the source list for Cowpea mosaic virus [CPMV]?
Answer: accumulation/clearance in liver (share of fluorescence signal) [1]: 75%; lung homing (in words) [1]: do not home to the lungs; also recorded: did not accumulate in the lungs; reduction of the ratio of tumor:total cells (B16F10 melanoma cells; H&E lung histology, QuPath (FIG. 4F)): 1.7 fold; decrease of tumor nodules (tumor burden) in the lungs compared to PBS (B16F10 melanoma cells; first study (FIG. 4C), 200 μg i.v. 7 days before challenge, lungs 2 weeks post challenge): 2.1 fold; reduction of tumor nodules compared to PBS (B16F10 melanoma cells; repeated experiment (FIG. 4D)): 1.7 fold; immune cell recruitment and activation in the lungs (in words) [2]: did not produce a significant impact; association/co-localization with S100A9 (in words) (S100A9 [3]): no association with S100A9; TLR and/or NOD agonism / immunostimulation (in words) ([4]; CPMV, peptide-conjugated CPMV and peptides only, 10 μg, 24 h (FIG. 6A)): strong TLR and/or NOD agonists; immunogenicity, activation of NF-κB and AP-1, CPMV compared to CCMV (in words) [4]: much more immunogenic compared to CCMV; also recorded: higher level of activation; also recorded: immunostimulated by CPMV; decrease in tumor nodules compared to PBS (4T1-Luc cells [5]; 225 μg i.v. 5 days before challenge, lungs harvested after 25 days): 10.6 fold; tumor growth by luminescent imaging (in words) (4T1-Luc cells [5]; IVIS every 3 days, up to day 21): no signs of tumor growth by day 21; side effects (in words) (4T1-Luc cells [5]; throughout the experiment): no apparent side effects were observed; weight of the mice (in words) (4T1-Luc cells [5]; tracked every 3 days throughout the experiment): stayed fairly consistent; time by which all mice died or reached clinical endpoints (4T1-Luc cells [6]): ≤ 15 days; tumor burden / tumor growth by bioluminescence (in words) (4T1-Luc cells [6]): significant tumor burden; also recorded: unable to slow 4T1-Luc tumor growth

Question: What does the source list for cowpea chlorotic mottle virus [CCMV]?
Answer: accumulation/clearance in liver (share of fluorescence signal) [1]: 75%; lung homing (in words) [1]: does not home to the lungs; effect on tumor burden in the lungs (in words) (B16F10 melanoma cells; first study (FIG. 4C), compared to PBS): This effect was not seen; immunogenicity, activation of NF-κB and AP-1, CPMV compared to CCMV (in words) [4]: immunostimulated by CPMV and not CCMV

Question: Which Kd (S100A9 [7]) does the source give for “peptide that binds S100A9, ACNSHRHGACGGGS (SEQ ID NO: 12) [MTP5]” here?
Answer: The Kd was 67.6 µM.

Question: Which Kd (S100A9 [7]) does the source give for “peptide that binds S100A9, ACNSVHQHHCGGGS (SEQ ID NO: 13) [MTP6]” here?
Answer: Its Kd is 39.6 µM.

Question: For “peptide that binds S100A9, ASSHIHHGGGS (SEQ ID NO: 10) [MTP2]”, which Kd (S100A9 [7]) is on record?
Answer: Its Kd is 77.6 µM.

Question: Which Kd (S100A9 [7]) does the source give for “peptide that binds S100A9, HNHMADPGGGS (SEQ ID NO: 11) [MTP3]” here?
Answer: Its Kd is 117 µM.

Question: Which KD (S100A9 [7]) does the source give for “scrambled control peptide MDPHAHNGGGS (SEQ ID NO: 16) [reference compound]” here?
Answer: The KD was “no binding”.

B1: S100A9 (S100 calcium-binding protein A9), endogenous, in lung sections of B16F10 tumor-bearing C57BL/6 mice (other)
chain: ANKAPSQMERSITTIIDTFHQYSRKEGHPDTLSKKEFRQMVEAQLATFMKKEKRNEALINDIMEDLDTNQDNQLSFEECMMLMAKLIFACHEKLHENNPRGHGHSHGKGCGK
notes: also called MRP14; calgranulin B
Question: Does B1 bind [8]?
Answer: Result: no binding
